# Measured values reported in ChEMBL document CHEMBL4308841, “Synthesis, in vitro antiproliferative activity, and kinase inhibitory effects of pyrazole-containing diarylureas and diarylamides” (Eur J Med Chem, 2018).
# Legend:
# BT-549 = test: Growth inhibition of human BT549 cells assessed as cell growth at 0.1 uM incubated for 48 hrs by sulforhodamine B assay relative to control; assay type: functional; settings: BT-549, 48 h, read-out: Activity
# NCI-H23 [1] = test: Growth inhibition of human NCI-H23 cells assessed as cell growth at 0.1 uM incubated for 48 hrs by sulforhodamine B assay relative to control; assay type: functional; settings: NCI-H23, 48 h, read-out: Activity
# M14 [2] = test: Growth inhibition of human M14 cells assessed as cell growth at 0.1 uM incubated for 48 hrs by sulforhodamine B assay relative to control; assay type: functional; settings: M14, 48 h, read-out: Activity
# K562 = test: Growth inhibition of human K562 cells incubated for 48 hrs by sulforhodamine B assay; assay type: functional, cell-based; settings: K562, 48 h
# HOP-62 [3] = test: Growth inhibition of human HOP62 cells assessed as cell growth at 1 uM incubated for 48 hrs by sulforhodamine B assay relative to control; assay type: functional; settings: HOP-62, 48 h, read-out: Activity
# HOP-62 [4] = test: Growth inhibition of human HOP62 cells assessed as cell growth at 0.1 uM incubated for 48 hrs by sulforhodamine B assay relative to control; assay type: functional; settings: HOP-62, 48 h, read-out: Activity
# OVCAR-4 [5] = test: Growth inhibition of human OVCAR4 cells incubated for 48 hrs by sulforhodamine B assay; assay type: functional, cell-based; settings: OVCAR-4, 48 h
# RPMI-8226 = test: Growth inhibition of human RPMI8226 cells assessed as cell growth at 0.01 uM incubated for 48 hrs by sulforhodamine B assay relative to control; assay type: functional; settings: RPMI-8226, 48 h, read-out: Activity
# SW-620 = test: Growth inhibition of human SW620 cells assessed as cell growth at 0.01 uM incubated for 48 hrs by sulforhodamine B assay relative to control; assay type: functional; settings: SW-620, 48 h, read-out: Activity
# MOLT-4 = test: Growth inhibition of human MOLT4 cells assessed as cell growth at 100 uM incubated for 48 hrs by sulforhodamine B assay relative to control; assay type: functional; settings: MOLT-4, 48 h, read-out: Activity
# OVCAR-4 [6] = test: Growth inhibition of human OVCAR4 cells assessed as cell growth at 1 uM incubated for 48 hrs by sulforhodamine B assay relative to control; assay type: functional; settings: OVCAR-4, 48 h, read-out: Activity
# U-251 = test: Growth inhibition of human U251 cells assessed as cell growth at 100 uM incubated for 48 hrs by sulforhodamine B assay relative to control; assay type: functional; settings: U-251, 48 h, read-out: Activity
# OVCAR-8 = test: Growth inhibition of human OVCAR8 cells assessed as cell growth at 0.01 uM incubated for 48 hrs by sulforhodamine B assay relative to control; assay type: functional; settings: OVCAR-8, 48 h, read-out: Activity
# ACHN = test: Growth inhibition of human ACHN cells assessed as cell growth at 0.1 uM incubated for 48 hrs by sulforhodamine B assay relative to control; assay type: functional; settings: read-out: Activity
# SK-MEL-2 = test: Growth inhibition of human SK-MEL-2 cells assessed as cell growth at 1 uM incubated for 48 hrs by sulforhodamine B assay relative to control; assay type: functional; settings: SK-MEL-2, 48 h, read-out: Activity
# T47D [7] = test: Growth inhibition of human T47D cells incubated for 48 hrs by sulforhodamine B assay; assay type: functional, cell-based
# NCI-H23 [8] = test: Growth inhibition of human NCI-H23 cells assessed as cell growth at 100 uM incubated for 48 hrs by sulforhodamine B assay relative to control; assay type: functional; settings: NCI-H23, 48 h, read-out: Activity
# T47D [9] = test: Growth inhibition of human T47D cells assessed as cell growth at 0.01 uM incubated for 48 hrs by sulforhodamine B assay relative to control; assay type: functional; settings: read-out: Activity
# HCT-15 = test: Growth inhibition of human HCT15 cells assessed as cell growth at 100 uM incubated for 48 hrs by sulforhodamine B assay relative to control; assay type: functional; settings: HCT-15, 48 h, read-out: Activity
# SK-MEL-5 = test: Growth inhibition of human SK-MEL-5 cells incubated for 48 hrs by sulforhodamine B assay; assay type: functional, cell-based; settings: SK-MEL-5, 48 h
# 786-0 = test: Growth inhibition of human 786-0 cells assessed as cell growth at 100 uM incubated for 48 hrs by sulforhodamine B assay relative to control; assay type: functional; settings: 786-0, 48 h, read-out: Activity
# NCI-H460 = test: Growth inhibition of human NCI-H460 cells assessed as cell growth at 100 uM incubated for 48 hrs by sulforhodamine B assay relative to control; assay type: functional; settings: NCI-H460, 48 h, read-out: Activity
# HT-29 = test: Growth inhibition of human HT-29 cells assessed as cell growth at 0.01 uM incubated for 48 hrs by sulforhodamine B assay relative to control; assay type: functional; settings: HT-29, 48 h, read-out: Activity
# M14 [10] = test: Growth inhibition of human M14 cells assessed as cell growth at 0.01 uM incubated for 48 hrs by sulforhodamine B assay relative to control; assay type: functional; settings: M14, 48 h, read-out: Activity
# UACC-62 = test: Growth inhibition of human UACC62 cells assessed as cell growth at 0.01 uM incubated for 48 hrs by sulforhodamine B assay relative to control; assay type: functional; settings: UACC-62, 48 h, read-out: Activity
# PC-3 = test: Growth inhibition of human PC3 cells assessed as cell growth at 1 uM incubated for 48 hrs by sulforhodamine B assay relative to control; assay type: functional; settings: PC-3, 48 h, read-out: Activity
# A549 = test: Growth inhibition of human A549/ATCC cells assessed as cell growth at 0.01 uM incubated for 48 hrs by sulforhodamine B assay relative to control; assay type: functional; settings: A549, 48 h, read-out: Activity
# KM12 = test: Growth inhibition of human KM12 cells assessed as cell growth at 1 uM incubated for 48 hrs by sulforhodamine B assay relative to control; assay type: functional; settings: KM12, 48 h, read-out: Activity
# M14 [11] = test: Growth inhibition of human M14 cells assessed as cell growth at 100 uM incubated for 48 hrs by sulforhodamine B assay relative to control; assay type: functional; settings: M14, 48 h, read-out: Activity
# SF-295 = test: Growth inhibition of human SF295 cells assessed as cell growth at 0.1 uM incubated for 48 hrs by sulforhodamine B assay relative to control; assay type: functional; settings: SF-295, 48 h, read-out: Activity
# IGROV-1 = test: Growth inhibition of human IGROV1 cells assessed as cell growth at 0.01 uM incubated for 48 hrs by sulforhodamine B assay relative to control; assay type: functional; settings: IGROV-1, 48 h, read-out: Activity
# [12] = read-out: LC50 (the source's name)
# [13] = read-out: pLC50 (the source's name) (converted)
smiles,measurement,setting,value
COc1cc(Cl)cc(-c2nn(-c3cccc(NC(=O)Nc4ccc(Cl)c(C(F)(F)F)c4)c3)cc2-c2ccncc2)c1,growth at 0.1 µM,BT-549,99%
same,growth at 0.1 µM,NCI-H23 [1],90%
same,growth at 0.1 µM,M14 [2],96%
same,GI50,K562; read-out: GI50,0.537 µM
same,LC50,K562; read-out: LC50,9.55 µM
same,TGI,K562; read-out: TGI,10.1 µM
same,GI50,K562; read-out: pGI50 (converted),5.37 µM
same,LC50,K562; read-out: pLC50 (converted),95.5 µM
same,TGI,K562; read-out: pTGI (converted),10 µM
same,growth at 1 µM,HOP-62 [3],84%
same,growth at 0.1 µM,HOP-62 [4],104%
same,GI50,OVCAR-4 [5]; read-out: GI50,1.53 µM
same,CC50,OVCAR-4 [5]; [12],> 100 µM
same,TGI,OVCAR-4 [5]; read-out: TGI,25.5 µM
same,GI50,OVCAR-4 [5]; read-out: pGI50 (converted),1.82 µM
same,CC50,OVCAR-4 [5]; [13],> 100 µM
same,TGI,OVCAR-4 [5]; read-out: pTGI (converted),2.63 µM
same,growth at 0.01 µM,RPMI-8226,97%
same,growth at 0.01 µM,SW-620,98%
same,growth at 100 µM,MOLT-4,-28%
same,growth at 1 µM,OVCAR-4 [6],62%
same,growth at 100 µM,U-251,-100%
same,growth at 0.01 µM,OVCAR-8,98%
same,growth at 0.1 µM,ACHN,57%
same,growth at 1 µM,SK-MEL-2,84%
same,GI50,T47D [7]; read-out: GI50,1.25 µM
same,CC50,T47D [7]; [12],> 100 µM
same,TGI,T47D [7]; read-out: TGI,80.2 µM
same,GI50,T47D [7]; read-out: pGI50 (converted),1.26 µM
same,CC50,T47D [7]; [13],> 100 µM
same,TGI,T47D [7]; read-out: pTGI (converted),7.94 µM
same,growth at 100 µM,NCI-H23 [8],-50%
same,growth at 0.01 µM,T47D [9],98%
same,growth at 100 µM,HCT-15,-90%
same,GI50,SK-MEL-5; read-out: GI50,1.54 µM
same,CC50,SK-MEL-5; [12],5.58 µM
same,TGI,SK-MEL-5; read-out: TGI,29.3 µM
same,GI50,SK-MEL-5; read-out: pGI50 (converted),1.55 µM
same,CC50,SK-MEL-5; [13],5.62 µM
same,TGI,SK-MEL-5; read-out: pTGI (converted),8.32 µM
same,growth at 100 µM,786-0,-81%
same,growth at 100 µM,NCI-H460,-62%
same,growth at 0.01 µM,HT-29,101%
same,growth at 0.01 µM,M14 [10],97%
same,growth at 0.01 µM,UACC-62,95%
same,growth at 1 µM,PC-3,14%
same,growth at 0.01 µM,A549,97%
same,growth at 1 µM,KM12,33%
same,growth at 100 µM,M14 [11],-70%
same,growth at 0.1 µM,SF-295,98%
same,growth at 0.01 µM,IGROV-1,112%
COc1cc(Cl)cc(-c2nn(-c3cccc(NC(=O)c4ccc(N5CCOCC5)c(C(F)(F)F)c4)c3)cc2-c2ccncc2)c1,growth at 0.1 µM,BT-549,100%
same,growth at 0.1 µM,NCI-H23 [1],90%
same,growth at 0.1 µM,M14 [2],96%
same,GI50,K562; read-out: GI50,3.1 µM
same,LC50,K562; read-out: LC50,> 100 µM
same,TGI,K562; read-out: TGI,> 100 µM
same,GI50,K562; read-out: pGI50 (converted),3.09 µM
same,LC50,K562; read-out: pLC50 (converted),> 100 µM
same,TGI,K562; read-out: pTGI (converted),> 100 µM
same,growth at 1 µM,HOP-62 [3],107%
same,growth at 0.1 µM,HOP-62 [4],105%
same,GI50,OVCAR-4 [5]; read-out: GI50,3.97 µM
same,CC50,OVCAR-4 [5]; [12],> 100 µM
same,TGI,OVCAR-4 [5]; read-out: TGI,> 100 µM
same,GI50,OVCAR-4 [5]; read-out: pGI50 (converted),39.8 µM
same,CC50,OVCAR-4 [5]; [13],> 100 µM
same,TGI,OVCAR-4 [5]; read-out: pTGI (converted),> 100 µM
same,growth at 0.01 µM,RPMI-8226,99%
same,growth at 0.01 µM,SW-620,96%
same,growth at 100 µM,MOLT-4,29%
same,growth at 1 µM,OVCAR-4 [6],94%
same,growth at 100 µM,U-251,3%
same,growth at 0.01 µM,OVCAR-8,99%
same,growth at 0.1 µM,ACHN,91%
same,growth at 1 µM,SK-MEL-2,98%
same,GI50,T47D [7]; read-out: GI50,1.04 µM
same,CC50,T47D [7]; [12],> 100 µM
same,TGI,T47D [7]; read-out: TGI,> 100 µM
same,GI50,T47D [7]; read-out: pGI50 (converted),10.5 µM
same,CC50,T47D [7]; [13],> 100 µM
same,TGI,T47D [7]; read-out: pTGI (converted),> 100 µM
same,growth at 100 µM,NCI-H23 [8],38%
same,growth at 0.01 µM,T47D [9],94%
same,growth at 100 µM,HCT-15,5%
same,GI50,SK-MEL-5; read-out: GI50,1.55 µM
same,CC50,SK-MEL-5; [12],> 100 µM
same,TGI,SK-MEL-5; read-out: TGI,> 100 µM
same,GI50,SK-MEL-5; read-out: pGI50 (converted),16.6 µM
same,CC50,SK-MEL-5; [13],> 100 µM
same,TGI,SK-MEL-5; read-out: pTGI (converted),> 100 µM
same,growth at 100 µM,786-0,-30%
same,growth at 100 µM,NCI-H460,5%
same,growth at 0.01 µM,HT-29,100%
same,growth at 0.01 µM,M14 [10],97%
same,growth at 0.01 µM,UACC-62,95%
same,growth at 1 µM,PC-3,73%
same,growth at 0.01 µM,A549,103%
same,growth at 1 µM,KM12,52%
same,growth at 100 µM,M14 [11],5%
same,growth at 0.1 µM,SF-295,94%
same,growth at 0.01 µM,IGROV-1,103%
